# Assay results from patent US6897206B2, “Combinations for the treatment of inflammatory disorders” (CombinatoRx, Inc., priority 2001, dated 2005).
# Key:
# [1] = system: TNFα secretion; assay: TNFα ELISA; suppression of TNFα secretion from phorbol 12-myristate 13-acetate and ionomycin stimulated PBMCs/blood; details: Homo sapiens, PBMC; for inhibition at 0.05 µM: amoxapine 0.050 μM alone (prednisolone 0.000 μM); for inhibition at 0.199 µM: amoxapine 0.199 μM alone (prednisolone 0.000 μM); for inhibition at 0.797 µM: amoxapine 0.797 μM alone (prednisolone 0.000 μM); for inhibition at 0.004 µM: prednisolone 0.004 μM alone (amoxapine 0.000 μM); for inhibition at 0.017 µM: prednisolone 0.017 μM alone (amoxapine 0.000 μM); for inhibition at 0.069 µM: prednisolone 0.069 μM alone (amoxapine 0.000 μM); for inhibition at 0.277 µM: prednisolone 0.277 μM alone (amoxapine 0.000 μM)
# Description: Stock solutions of amoxapine (16 mg/ml) (Sigma-Aldrich, St. Louis, Mo.; catalog number A129) and prednisolone (1.6 mg/ml) (Sigma-Aldrich, catalog number P6004) were made in dimethylsulfoxide (DMSO). The amoxapine master plates were made by adding 25 μl of the concentrated stock solution to columns 3, 9, and 15 (rows C through N) of a polypropylene 384-well storage plate that had been pre-filled with 75 μl of anhydrous DMSO. Using a TomTec Quadra Plus liquid handler, the 25 μl of amoxapine stock solution was serially diluted two-fold four times into the adjacent columns (columns 4-7, 10-13, 16-19). […] The prednisolone master plates were made by adding 25 μl of the concentrated prednisolone stock solution to the appropriate wells (row C, columns 3-8; row C, columns 9-14; row C, columns 15-20; row I, columns 3-8; row I, columns 9-14; row I, columns 15-20) of the appropriate prednisolone master polypropylene 384-well storage plate. These master plates had been pre-filled with 75 μl of anhydrous DMSO. Using the TomTec Quadra Plus liquid handler, the 25 μl was serially diluted two-fold four times in the adjacent rows (rows D-G, and J-M). […] Master plates were sealed and stored at −20 C until ready for use.
# The final amoxapine/prednisolone combination plate was generated by transferring 1 μl from each of the amoxapine and prednisolone master plates to a dilution plate containing 100 μl of media (RPMI; Gibco BRL, #11875-085), 10% Fetal Bovine Serum (Gibco BRL, #25140-097), 2% Penicillin/Streptomycin (Gibco BRL, #15140-122)) using the TomTec Quadra Plus liquid handler. This dilution plate was then mixed and a 10 μl aliquot transferred to the final assay plate, which had been pre-filled with 40 μl/well RPMI media containing the appropriate stimulant to activate TNFα secretion (see below).
# (§1) The compound dilution matrix was assayed using a TNFα ELISA method. Briefly, a 100 μl suspension of diluted human peripheral blood mononuclear cells (PBMCs) contained within each well of a polystyrene 384-well plate (NalgeNunc) was stimulated to secrete TNFα by treatment with a final concentration of 10 ng/ml phorbol 12-myristate 13-acetate (Sigma) and 750 ng/μl ionomycin (Sigma). Various concentrations of each test compound were added at the time of stimulation. After 16-18 hours of incubation at 37° C. in a humidified incubator, the plate was centrifuged and the supernatant transferred to a white opaque polystyrene 384 well plate (NalgeNunc, Maxisorb) coated with an anti-TNF antibody (PharMingen, #18631 D). After a two-hour incubation, the plate was washed (Tecan PowerWasher 384) with phosphate buffered saline (PBS) containing 0.1% Tween 20 (polyoxyethylene sorbitan monolaurate) and incubated for an additional one hour with another anti-TNF antibody that was biotin labeled (PharMingen, 18642D) and horseradish peroxidase (HRP) coupled to strepavidin (PharMingen, #13047E). After the plate was washed with 0.1% Tween 20/PBS, the HRP substrate (which contains luminol, hydrogen peroxide, and an enhancer such as para-iodophenol) was added to each well and light intensity measured using a LJL Analyst luminometer. Control wells contained a final concentration of 1 μg/ml cyclosporin A (Sigma).
# [2] = system: TNFα secretion; assay: cells; details: Homo sapiens, read-out: TNFα inhibition
# Description: as §1
# [3] = read-out: TNFα inhibition, Table 1
# [4] = read-out: TNFα inhibition, Table 2
smiles,measurement,setting,value
"Clc1ccc2c(c1)C(N1CCNCC1)=Nc1ccccc1O2 [Amoxapine, 2-cloro-11(1-piperazinyl)dibenz[b,f][1,4]oxapine]",inhibition at 0.4 µM,"[1]; read-out: TNFα inhibition activity, follow-up secondary screen, amoxapine alone at 400 nM",16%
same,inhibition at 0.05 µM,[1]; [3],7.3%
same,inhibition at 0.199 µM,[1]; [3],16.7%
same,inhibition at 0.797 µM,[1]; [3],24.3%
same,inhibition at 3.188 µM,"[1]; read-out: TNFα inhibition, Table 1, amoxapine 3.188 μM alone (prednisolone 0.000 μM)",50.4%
same,inhibition at 12.75 µM,"[1]; read-out: TNFα inhibition, Table 1, amoxapine 12.750 μM alone (prednisolone 0.000 μM)",73%
same,inhibition at 0.05 µM,[1]; [4],-3.31%
same,inhibition at 0.1 µM,"[1]; read-out: TNFα inhibition, Table 2, amoxapine 0.100 μM alone (prednisolone 0.000 μM)",3.6%
same,inhibition at 0.199 µM,[1]; [4],14.2%
same,inhibition at 0.398 µM,"[1]; read-out: TNFα inhibition, Table 2, amoxapine 0.398 μM alone (prednisolone 0.000 μM)",16.4%
same,inhibition at 0.797 µM,[1]; [4],21.9%
same,inhibition at 1.593 µM,"[1]; read-out: TNFα inhibition, Table 2, amoxapine 1.593 μM alone (prednisolone 0.000 μM)",37.1%
same,inhibition at 3.187 µM,"[1]; read-out: TNFα inhibition, Table 2, amoxapine 3.187 μM alone (prednisolone 0.000 μM)",48%
same,inhibition at 6.373 µM,"[1]; read-out: TNFα inhibition, Table 2, amoxapine 6.373 μM alone (prednisolone 0.000 μM)",64.4%
same,inhibition at 12.747 µM,"[1]; read-out: TNFα inhibition, Table 2, amoxapine 12.747 μM alone (prednisolone 0.000 μM)",80.9%
same,inhibition at 0.05 µM,[2],3%
same,inhibition at 0.1 µM,[2],5.52%
same,inhibition at 0.199 µM,[2],2.39%
same,inhibition at 0.398 µM,[2],8.1%
same,inhibition at 0.797 µM,[2],13.1%
same,inhibition at 1.593 µM,[2],16.8%
same,inhibition at 3.187 µM,[2],24.2%
same,inhibition at 6.373 µM,[2],21.3%
same,inhibition at 12.747 µM,[2],49.6%
"C[C@]12C=CC(=O)C=C1CC[C@@H]1[C@@H]2[C@@H](O)C[C@@]2(C)[C@H]1CC[C@]2(O)C(=O)CO [Prednisolone, 1,4-pregnadiene-11beta, 17alpha,21-triol-3,20-dione]",inhibition at 0.009 µM,"[1]; read-out: TNFα inhibition activity, follow-up secondary screen, prednisolone alone at 9 nM",14%
same,inhibition at 0.004 µM,[1]; [3],2.69%
same,inhibition at 0.017 µM,[1]; [3],19.1%
same,inhibition at 0.069 µM,[1]; [3],22.3%
same,inhibition at 0.277 µM,[1]; [3],26.8%
same,inhibition at 1.11 µM,"[1]; read-out: TNFα inhibition, Table 1, prednisolone 1.110 μM alone (amoxapine 0.000 μM)",27.6%
same,inhibition at 0.004 µM,[1]; [4],9.62%
same,inhibition at 0.009 µM,"[1]; read-out: TNFα inhibition, Table 2, prednisolone 0.009 μM alone (amoxapine 0.000 μM)",14.3%
same,inhibition at 0.017 µM,[1]; [4],24.7%
same,inhibition at 0.035 µM,"[1]; read-out: TNFα inhibition, Table 2, prednisolone 0.035 μM alone (amoxapine 0.000 μM)",24.1%
same,inhibition at 0.069 µM,[1]; [4],24.6%
same,inhibition at 0.139 µM,"[1]; read-out: TNFα inhibition, Table 2, prednisolone 0.139 μM alone (amoxapine 0.000 μM)",25.7%
same,inhibition at 0.277 µM,[1]; [4],36.9%
same,inhibition at 1.11 µM,"[1]; read-out: TNFα inhibition, Table 2, prednisolone 1.110 μM alone (amoxapine 0.000 μM)",34.6%
same,inhibition at 1.11 µM,"[1]; read-out: TNFα inhibition, follow-up secondary screen, 1110 nM prednisolone alone",35%
same,inhibition at 1.11 µM,"[1]; read-out: inhibit TNFα secretion, prednisolone alone at 1.11 μM",28%
same,inhibition at 0.004 µM,[2],12.1%
same,inhibition at 0.009 µM,[2],30.2%
same,inhibition at 0.017 µM,[2],37.1%
same,inhibition at 0.035 µM,[2],33.1%
same,inhibition at 0.069 µM,[2],38.8%
same,inhibition at 0.139 µM,[2],48.5%
same,inhibition at 0.277 µM,[2],48.8%
same,inhibition at 1.11 µM,[2],60.1%
